According to paper PMC8509428, “The Phenoxyalkyltriazine Antagonists for 5-HT6 Receptor with Promising Procognitive and Pharmacokinetic Properties In Vivo in Search for a Novel Therapeutic Approach to Dementia Diseases” (International Journal of Molecular Sciences, 2021):

How the values were obtained:
hepatoma HepG2 cell line = experiment: Hepatotoxicity, HepG2 viability (MTS); assay type: cell-based; details: 0.1–100 µM, 72 h
Procedure: Cells were grown under previously described conditions. […] The cells’ viability was determined by CellTiter 96® AQueous Non-Radioactive Cell Proliferation Assay (MTS), which was purchased from Promega® (Madison, WI, USA). The absorbance was measured using a microplate reader EnSpire (PerkinElmer, Waltham, MA USA) at 490 nm. All compounds were tested in quadruplicate.

[1] = Bi-directional Caco-2 permeability assay; assay type: in vitro ADME; details: human, pH 7.4, Caco-2, 10 µM, triplicate
SH-SY5Y cells = experiment: Intracellular ROS, DCFH-DA assay (neuroprotection); assay type: cell-based, human; details: SH-SY5Y neuroblastoma cells
Procedure: ROS measurement was assayed by 2′,7′-Dichlorofluorescin diacetate (DCFH-DA, Sigma D6883). […] Briefly, SH-SY5Y cells (4 × 10^3 cells/well) were seeded in a black-sided, clear-bottom 384-well plate (Life Technologies, Warsaw, Poland) in DMEM without phenol red (Life Technologies, Warsaw, Poland) supplemented with 5% FBS and cultured for 24 h. The next day, the medium was removed, the cells were washed once with HBSS and treated for 45 min with non-fluorescent dye DCFH-DA (final concentration 25 μM, freshly prepared in warm HBSS). […] After that, toxic agents were added: H2O2 (200 μM), oxaliplatin (OXA, 25 μM) and rotenone (ROT, 32.5 μM) and the cells were incubated for 5 h. In our preliminary experiments, different concentration of toxic agents was tested to choose the convenient one that leads to 50% cell death. As a positive control, the cells were incubated alone with toxic agents. As a vehicle control, the cells were incubated with HBSS with 0.1% DMSO. In the presence of ROS, the non-fluorescent dye DCFH-DA is oxidized, producing fluorescent dichlorofluorescein (DCF). Fluorescence was measured at Ex/Em = 485/535 nm using the microplate reader EnSpire.

human 5-HT6R = details: ± SD; read-out: Ki 5-HT6 (converted); cited from earlier work
PAMPA permeability = assay type: in vitro ADME; details: PBS pH 7.4, 5 h, triplicate, read-out: Pe (PAMPA permeability coefficient) ± SD
Procedure: The 96-well Pre-coated PAMPA Plate System Gentest™ that was used was obtained from Corning (Tewksbury, MA, USA). […] 200 μL/well of PBS was added to the acceptor wells. All compounds were analyzed in triplicate. The plate was incubated at room temperature for 5 h. Then, the 50 μL was aspirated from each well and diluted next with 50 µL solution of an internal standard (IS). The compounds’ concentrations in acceptor and donor wells were estimated by the UPLC-MS analyses, which were performed by LC/MS Waters ACQUITY™ TQD system with the TQ Detector (Waters, Milford, CT, USA). The permeability coefficients (Pe, cm/s) were calculated according described previously formulas.

[2] = system: MK-801-induced memory deficits in rats; experiment: Novel object recognition (NOR) test, MK-801-induced memory impairment; assay type: in vivo, rat; details: for Total Exploratory Time in T2 Session: mean ± SEM; for minimal effective dose in NOR test: i.p., reversal of MK-801-induced memory impairment
Procedure: Five days before the experiment, the rats were transferred to the laboratory, labelled and, thereafter, left to acclimate to the new environment. The animals were handling every five days before experiments to minimize the stress reaction. The protocol was adapted from the original work. The test session comprising of two trials separated by an inter-trial interval (ITI) of 1 h was carried out after 2 days of the training session. During the first trial (familiarization, T1) two identical objects (A1 and A2) were presented in the opposite corners of the open field, approximately 10 cm from the walls. During the second trial (recognition, T2) one of the A objects was replaced by a novel object B, so that the animals were presented with the A = familiar and B = novel objects. Both trials lasted for 3 min and the animals were returned to their home cages after T1.
The objects used were the metal Coca-Cola cans and the glass jars filled with sand. […] The sequence of presentations and the location of the objects were randomly assigned to each rat. After each measurement, the floor was cleaned and dried.
The animals explored the objects by looking, licking, sniffing or touching the object but not when leaning against, standing or sitting on the object. Any rat exploring the two objects for less than 5 s within 3 min of T1 or T2 was eliminated from the study. The exploration time of the objects was measured by a blind experimenter. Based on the exploration time (E) of two objects during T2, the discrimination index (DI) was calculated according to the formula: DI = (EB − EA)/(EA + […]). Using this metric, scores approaching zero reflects no preference while positive values reflect a preference for the novel object and negative numbers reflect a preference for the familiar.
MK-801, used to attenuate learning, was administered at the dose of 0.1 mg/kg (i.p.) 30 min before the familiarization phase (T1), while investigated compounds were given 60 min before T1 session. In such scheme of experiment we could observe the impact of investigated compounds on the one type of rats’ memory—episodic memory and one phase of memory process—[…].
The total exploration time in T2 was used to express the influence of the treatment on the exploratory activity of the animals.

CYP3A4 = molecular target: T1, CYP3A4 (Homo sapiens, UniProt P08684); experiment: CYP3A4 P450-Glo assay; assay type: in vitro ADME
T1 construct: purchased Promega
Procedure: The luminescent CYP3A4 P450-Glo™ Promega® (Madison, WI, USA) was used for the investigation of potential drug-drug interactions. All assays and protocols were described before. The compounds were tested in triplicate at the final concentrations in the range from 0.01 to 25 μM. The luminescent signal was measured by using a microplate reader EnSpire PerkinElmer (Waltham, MA, USA).

[3] = 0.3 mg/kg i.p. + MK-801 0.1 mg/kg
[4] = 1 mg/kg i.p. + MK-801 0.1 mg/kg
[5] = 3 mg/kg i.p. + MK-801 0.1 mg/kg

T1 sequence (P08684 whole entry): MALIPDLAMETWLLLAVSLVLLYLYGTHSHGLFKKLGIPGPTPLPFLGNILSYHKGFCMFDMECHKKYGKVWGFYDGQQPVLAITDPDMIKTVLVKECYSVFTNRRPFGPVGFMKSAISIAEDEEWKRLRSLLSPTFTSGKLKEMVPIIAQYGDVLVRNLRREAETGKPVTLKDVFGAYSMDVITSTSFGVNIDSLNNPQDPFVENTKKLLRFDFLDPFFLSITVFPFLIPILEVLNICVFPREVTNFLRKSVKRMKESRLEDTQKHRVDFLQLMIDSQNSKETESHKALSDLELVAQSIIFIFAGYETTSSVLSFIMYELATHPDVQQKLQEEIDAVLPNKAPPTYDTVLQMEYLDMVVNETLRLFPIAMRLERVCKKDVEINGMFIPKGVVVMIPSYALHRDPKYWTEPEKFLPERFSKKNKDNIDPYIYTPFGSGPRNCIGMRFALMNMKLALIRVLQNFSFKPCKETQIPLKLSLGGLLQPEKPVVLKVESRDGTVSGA

| SMILES | hepatotoxicity effect, HepG2 viability (hepatoma HepG2 cell line) | Papp A→B at 2 h, 10 µM [1] [×10⁻⁶ cm/s] | Papp B→A at 2 h, 10 µM [1] [×10⁻⁶ cm/s] | protective activity against rotenone-induced neurotoxicity (SH-SY5Y cells) | Ki (human 5-HT6R) [nM] | Papp at 5 h (PAMPA permeability) [×10⁻⁶ cm/s] | Total Exploratory Time in T2 Session ([2]; 0.1 mg/kg i.p. + MK-801 0.1 mg/kg) [s] | Total Exploratory Time in T2 Session [2, 3] [s] | Total Exploratory Time in T2 Session [2, 4] [s] | Total Exploratory Time in T2 Session [2, 5] | minimal effective dose in NOR test [2] [mg/kg] | CYP3A4 activity remaining (CYP3A4; 10 μM of compound) [%] | inhibition against CYP3A4 (CYP3A4; all tested concentrations (0.1 to 25 μM)) |
| --- | --- | --- | --- | --- | --- | --- | --- | --- | --- | --- | --- | --- | --- |
| CCC(Oc1ccccc1)c1nc(N)nc(N2CCN(C)CC2)n1 (racemic) [Compound 3, (RS)-4-(4-methylpiperazin-1-yl)-6-(1-phenoxypropyl)-1,3,5-triazin-2-amine] | no hepatotoxicity effect | 3.16 ± 1.35 | 10.1 ± 0.15 | protective activity | 21 | 15.1 ± 1 | 47.33 ± 4.79 | 38.14 ± 4.18 | 35.57 ± 3.76 | 34.14 ± 1.22; F(5,47) = 1.9394; NS s | 0.1 | 64 |  |
| CCC(Oc1cccc(Cl)c1Cl)c1nc(N)nc(N2CCN(C)CC2)n1 (racemic) [Compound 2, (RS)-4-[1-(2,3-dichlorophenoxy)propyl]-6-(4-methylpiperazin-1-yl)-1,3,5-triazin-2-amine] | no hepatotoxicity effect | 50.3 ± 6.22 | 21.1 ± 2.14 | protective activity | 6 ± 2 | 20.5 ± 5.4 |  | 52.67 ± 5.37 | 40.33 ± 6.66 | 42.88 ± 2.10 F(4,27) = 3.5450; p < 0.05 s | 0.3 |  | did not display an inhibition |
